Test results: US5925639A, “Keto amide derivatives useful as farnesyl protein transferase inhibitors” (Schering Corporation, priority 1997, dated 1999)
pIC50: −log10 of the molar value.

Key:
[1] = system: COS Cell; assay: COS Cell IC50 (Cell-Based Assay)
Description: (§1) FPT IC50 (inhibition of farnesyl protein transferase, in vitro enzyme assay), COS Cell IC50 (Cell-Based Assay), GGPT IC50 (inhibition of geranylgeranyl protein transferase, in vitro enzyme assay), Cell Mat Assay, and anti-tumor activity (in vivo anti-tumor studies) are determined by the assay procedures described in WO 95/10516.

[2] = molecular target: farnesyl protein transferase (Homo sapiens, UniProt P49354+P49356); assay: FPT IC50 (inhibition of farnesyl protein transferase, in vitro enzyme assay); assay type: biochemical
Description: as §1

pIC50 [2]	Structure (SMILES)	pIC50 [1]
7.06	CO/N=C(\CCC(=O)N1CCC([C@H]2c3ncc(Br)cc3CCc3cc(Cl)cc(Br)c32)CC1)c1ccccc1 [Example 11]	
8.16	CC(CCC(=O)N1CCC([C@H]2c3ncc(Br)cc3CCc3cc(Cl)cc(Br)c32)CC1)=NNC(=O)C(N)=O [Example 13]	
8.01	CC(CCC(=O)N1CCC([C@H]2c3ncc(Br)cc3CCc3cc(Cl)cc(Br)c32)CC1)=NNC(N)=O [Example 12]	
8.33	O=C(CC/C(=N\O)c1ccccc1)N1CCC([C@H]2c3ncc(Br)cc3CCc3cc(Cl)cc(Br)c32)CC1 [Example 10]	

More lines, now with the values behind:

Structure (SMILES)	pIC50 [2]	pIC50 [1]
CC(=O)CCC(=O)N1CCC([C@H]2c3ncc(Br)cc3CCc3cc(Cl)cc(Br)c32)CC1 [Example 3]	8.47	7.27
CC(=O)C(=O)N1CCC([C@H]2c3ncc(Br)cc3CCc3cc(Cl)cc(Br)c32)CC1 [Example 6]	7.34	
O=C(C(=O)N1CCC([C@H]2c3ncc(Br)cc3CCc3cc(Cl)cc(Br)c32)CC1)c1ccccc1 [Example 2]	7.19	
C/C(CCC(=O)N1CCC([C@H]2c3ncc(Br)cc3CCc3cc(Cl)cc(Br)c32)CC1)=N\O [Example 8]	8.31	7.28
CC(=O)CCCC(=O)N1CCC([C@H]2c3ncc(Br)cc3CCc3cc(Cl)cc(Br)c32)CC1 [Example 4]	8.12	8.00
O=C(/C(=N\O)c1ccccc1)N1CCC([C@H]2c3ncc(Br)cc3CCc3cc(Cl)cc(Br)c32)CC1 [Example 9]	< 6.82	
C/C(CCC(=O)N1CCC([C@H]2c3ncc(Br)cc3CCc3cc(Cl)cc(Br)c32)CC1)=N/O [Example 7]	7.96	
O=C(CCC(=O)N1CCC([C@H]2c3ncc(Br)cc3CCc3cc(Cl)cc(Br)c32)CC1)c1ccccc1 [Example 1]	7.68	
CC(=O)CC(=O)CCC(=O)N1CCC([C@H]2c3ncc(Br)cc3CCc3cc(Cl)cc(Br)c32)CC1 [Example 5]	8.04	6.76
